# How the values were obtained:
# C. parvum Iowa isolate [1] = assay: Immunofluorescence assay for C. parvum growth inhibition in HCT-8 cells; assay type: cell-based, Cryptosporidium parvum; conditions: Cryptosporidium parvum, inside HCT-8 cells, 48 h incubation
# Experimental: Inhibition of C. parvum growth was measured as described previously ([20]). Oocysts were excysted by treatment with 10 mM hydrochloric acid (10 min at 37°C), followed by exposure to 2 mM sodium taurocholate (Sigma-Aldrich) in PBS for 10 min at 16°C. Excysted oocysts were then added to >95% confluent HCT-8 cell monolayers in 384-well plates at a concentration of 5,500 Iowa isolate oocysts per well. For C. parvum field isolates, the inoculum required to yield an infection level similar to that produced by 5,500 Iowa isolate oocysts per well was determined and was used for subsequent assays of parasite inhibition. Compounds were added just before or 3 h after infection, and assay plates were incubated for 48 h postinfection at 37°C under 5% CO2. Wells were then washed three times with PBS containing 111 mM D-galactose, fixed with 4% paraformaldehyde in PBS for 15 min at room temperature, permeabilized with 0.25% Triton X-100 for 10 min at 37°C, washed three times with PBS with 0.1% Tween 20, and blocked with 4% bovine serum albumin (BSA) in PBS for 2 h at 37°C or 4°C overnight. Parasitophorous vacuoles were stained with 1.33 μg/ml of fluorescein-labeled Vicia villosa lectin (Vector Laboratories) diluted in 1% BSA in PBS with 0.1% Tween 20 for 1 h at 37°C, followed by the addition of Hoechst 33258 (AnaSpec) at a final concentration of 0.09 mM diluted in water for another 15 min at 37°C. Wells were then washed five times with PBS containing 0.1% Tween 20. A Nikon Eclipse TE2000 epifluorescence microscope with an automated stage was programmed using NIS-Elements Advanced Research software (Nikon, USA) to focus on the center of each well and take a 3-by-3 composite image using an EXi Blue fluorescence microscopy camera (QImaging, Canada) with a 20× objective (numerical aperture, 0.45). Nucleus and parasite images were exported separately as .tif files and were analyzed using macros developed on the ImageJ platform (National Institutes of Health) ([20]). The only modification from the published macro used to count parasites was that the lower size threshold for parasites was decreased from 16.5 to 4 pixels (1 pixel = 0.65 μm). Graphs were plotted, and half-maximal effective concentration (EC50) and 90% effective concentration (EC90) values were calculated using GraphPad Prism software, version 6.01. For every C. parvum field isolate experiment, a dose-response experiment against the C. parvum Iowa isolate was performed simultaneously as a reference.
# HCT-8 cells = assay: Host cell toxicity assay (CellTiter AQueous); assay type: cell-based, Human
# Experimental: Host cell toxicity was measured as described previously ([20]). HCT-8 cells were grown to >95% confluence in 384-well plates. Increasing concentrations of compounds were added, and assay plates were incubated at 37°C under 5% CO2 for 48 h. The corner wells of each plate were trypsinized to remove cells and were used as blanks for measuring absorbance at 490 nm. Cell proliferation was measured using the CellTiter AQueous assay kit (Promega, USA) according to the manufacturer's instructions and was expressed as the percentage of proliferation with the vehicle control (DMSO). GraphPad Prism software, version 6.01, was used to plot graphs and calculate the concentration that inhibits 50% of host cell proliferation relative to that with the DMSO control (50% toxic concentration [TC50]). A selectivity index (SI) was calculated as the ratio of the […].
# C. parvum Iowa isolate [2] = assay: NOD SCID gamma (NSG) mouse model of chronic cryptosporidiosis, fecal qPCR; assay type: in vivo, NOD SCID gamma mice
# Experimental: All NOD SCID gamma mouse studies were performed in compliance with animal care guidelines and were approved by the University of Vermont Institutional Animal Care and Use Committee. NOD SCID gamma mice with normal flora (NOD.Cg-Prkdc^scid Il2rg^tm1Wjl/SzJ) ([38]) were purchased from The Jackson Laboratory (Bar Harbor, ME, USA) and were housed for at least a week for acclimatization. At the age of 4 to 5 weeks, mice were infected with 10^5 C. parvum Iowa isolate oocysts. Fecal oocyst shedding is detected 6 days after infection using a quantitative PCR (qPCR assay), so treatment was started on day 7 after infection. Mice (4 per experimental group) were treated either orally (p.o.) with MMV665917 at 30 or 60 mg/kg BID, intraperitoneally (i.p.) with MMV665917 at 60 mg/kg BID, or p.o. with 1,000 mg/kg paromomycin BID. MMV665917 was suspended in DMSO, sonicated three times, for 30 s each time, to obtain a fine suspension, aliquoted, and stored at −80°C for <10 days. On the day of treatment, aliquots of MMV665917 diluted in DMSO were thawed, mixed well using a vortexer, diluted with 1% HPMC, sonicated as before (three times for 30 s each time), mixed well, and given to mice either p.o. or by i.p. injection. A final concentration of 5% DMSO was used in 100 μl of 1% HPMC per dose. For the additional Malaria Box compounds and compound variants tested, the doses were prepared in the same way, and the specific dosages tested are given in Table S3 in the supplemental material. Mice were treated for either 4 or 7 days, allowed to recover for a week, and then sacrificed. Oocyst shedding in feces was monitored throughout by qPCR, including time points while on treatment and while monitoring for relapsed infection following completion of treatment in Fig. 2A.
# [3] = tested on: five mammalian cell lines; assay: Toxicity profiling in mammalian cell lines; conditions: based on previously reported toxicity profiling
# [4] = parameters: method as in PMID 27467575; conditions: human; cited from earlier work
# [5] = tested on: 11 species of bacteria, 12 protozoa, and 7 helminths; parameters: method as in PMID 27467575; conditions: cited from earlier work
smiles,measurement,setting,value
"O=C(Nc1ccc(Cl)cc1)N1CCN(c2ccc3nncn3n2)CC1 [MMV665917, Clc1ccc(NC(=O)N2CCN(CC2)c3ccc4nncn4n3)cc1]",EC50,"C. parvum Iowa isolate [1]; Fig. 1, read-out: EC50, anti-C. parvum dose response",2.1 µM
same,EC90,"C. parvum Iowa isolate [1]; Fig. 1B, read-out: EC90, anti-C. parvum dose response",5.1 µM
same,"TC50, host HCT-8 cell toxicity","HCT-8 cells; 48 h, CellTiter AQueous",> 100 µM
same,selectivity index (SI),HCT-8 cells; HCT-8 TC50 versus C. parvum EC50,> 47
same,toxic effect on host HCT-8 cell proliferation,HCT-8 cells; concentrations as high as 100 μM,no toxic effect
same,reduction of oocyst shedding,"C. parvum Iowa isolate [2]; 30 mg/kg orally twice daily, 7 days, from day 7 after infection",> 90%
same,"efficacy, oral versus intraperitoneal dosing","C. parvum Iowa isolate [2]; 60 mg/kg BID p.o. or i.p., Fig. 4A",equally efficacious regardless of the route of administration
same,relapse after cessation of treatment,"C. parvum Iowa isolate [2]; MMV665917 30 mg/kg orally twice daily, 7 days",relapsed
same,outcome after cessation of treatment,"C. parvum Iowa isolate [2]; MMV665917 60 mg/kg orally twice daily, 7 days",apparently cured
same,NSG efficacy,"C. parvum Iowa isolate [2]; dose 30 mg/kg, interval 12 h, duration 4 days",efficacious
same,selectivity index (SI) for C. parvum over five mammalian cell lines,[3],> 20
same,plasma protein binding,[4],88.8%
same,"activity in numerous biological assays (bacteria, protozoa, helminths)",[5],inactive
